#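 Test compounds were applied to cells in 96-well plates for 48 hours at 5 doses. GI50 = concentration required for 50% inhibition of growth. TGI denotes the concentration required for complete inhibition of growth.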
# Tested on: MDA-MB-468 breast
# Test: NCI tumour cell line growth inhibition, 48 h
SMILES,GI50 [nM],TGI [nM]
CCNCCCn1c2c(c3ccc(Cl)cc3c1=O)C(=O)c1cc(OC)cnc1-2,249,4300
COc1ccc2c(c1)c(CC(=O)[Se]C)c(C)n2C(=O)c1ccc(Cl)cc1,> 419,> 681
C=C(C)[C@@H]1CC[C@]2(C(=O)N[C@H](CO)Cc3ccccc3)CC[C@]3(C)[C@H](CC[C@@H]4[C@@]5(C)CCCNC(C)(C)[C@@H]5CC[C@]43C)[C@@H]12,1520,3030
CC1=C(C(=O)Nc2ccc3n[nH]c(C)c3c2)C(c2ccc(C(F)(F)F)cc2)CC(=O)N1 (stereo not drawn),7090,> 25000
Nc1ncnc2c1N=C(c1ccc3c(c1)OCO3)CC(c1ccc([N+](=O)[O-])cc1)N2 (stereo not drawn),25200,60400
COc1ccc2c(c1)NC1=C(C(=O)OC1)C2c1cc(OC)c2c(c1)OCO2 (stereo not drawn),< 15.4,61
C#CC#CC#CC#CC#CC#CC#CC#CCC1OCC(COC(=O)O[C@@H](C(=O)O[C@H]2C[C@@]3(O)[C@@H](OC(=O)c4ccccc4)[C@@H]4[C@]5(OC(C)=O)CO[C@@H]5C[C@H](O)[C@@]4(C)C(=O)[C@H](OC(C)=O)C(=C2C)C3(C)C)[C@@H](NC(=O)c2ccccc2)c2ccccc2)O1 (stereo partly drawn),67,423
O=C1C(Nc2ccc(Cl)cc2)=C(I)C(=O)c2ncccc21,1510,3820
Cc1[nH]c2ccccc2c1CCCO,> 100000,> 100000
COc1cccc(-c2c[nH]c3c(N/N=C/c4ccncc4)ncnc23)c1,848,3890
COc1cc(C(=O)c2c(-c3ccccc3)oc3c(OC)cccc23)cc(OC)c1OC,83.9,11100
CN(C)CCN1C(=O)c2c(c3c4ccccc4n4c3c3c2c2ccccc2n3C2CC(O)C(O)C4(C)O2)C1=O (stereo not drawn),1520,5650
O=C1c2c(c3c4cc(Br)ccc4[nH]c3c3ccc4ccccc4c23)C(=O)N1CCN1CCNCC1,1800,4480
CC1=C(c2cccc(O)c2)[C@H](c2ccc(OCCN3CC(CF)C3)cc2)Oc2ccc(O)cc21,2400,6240
CN1CCN(C(=O)C(C)(C)c2ccc(C(=O)Nc3cn4cc(-c5ccncc5)ccc4n3)cc2)CC1,162,1180
Cc1ccccc1OCC(O)CN1CCN(c2ccc(Cl)cc2)CC1 (stereo not drawn),17400,35400
O=C(Nc1ccc(Cl)cc1)Nc1nc2ccc([N+](=O)[O-])cc2s1,862,2380
O=C1OCC2=C1C(c1cccc(Cl)c1)c1cc3c(cc1N2CCO)OCCO3 (stereo not drawn),26.5,516
Cc1cc([N+](=O)[O-])c(NS(=O)(=O)c2cccc(C(=O)O)c2)cc1-c1cccnc1,> 100000,> 100000

# From PubChem BioAssay (NCI)
